Data as given in patent US9562043B2 (EA Pharma Co., Ltd., priority 2012, dated 2017).
pIC50: −log10 of the molar value.

Biological target: T1, human TRPA1 (Homo sapiens, UniProt O75762)
T1 construct: host or cells: human embryonic kidney-derived 293T cells, transient transfection with pcDNA3.1/zeo(+) plasmid
Test: Measurement of TRPA1 antagonist activity (intracellular calcium increase, FLIPR)
Type: cell-based
Details: 293T cells transfected with human TRPA1 expression plasmid, allylisothiocyanate 20 μM stimulation, calcium fluorescence, read-out: antagonism hTRPA1
Text: Measurement of TRPA1 Antagonist Activity
Human TRPA1 Expression Plasmid
As cDNA encoding human TRPA1 (GenBank accession No. […]), a commercially available product was purchased (manufactured by Kazusa DNA Research Institute, clone No.: pFN21AB7348, item No.: FHC07217). Using this as a template, full-length human TRPA1 gene was amplified using the primer sequences shown below, by reaction using DNA polymerase (manufactured by Stratagene, trade name: PfuUltra High-Fidelity DNA Polymerase).
A recognition site (underlined) of restriction enzyme HindIII was added to the 5′ side, and XbaI site (underlined) was added to the 3′ side, and GTT of the template sequence was changed to termination codon TAG (bold). The obtained double stranded DNA was enzyme-digested with HindIII and XbaI, and introduced into a multicloning site of expression plasmid pcDNA3.1/zeo(+) (manufactured by Invitrogen) to give a human TRPA1 expression plasmid.
Human embryonic kidney-derived 293T cells were cultured in Dulbecco's Modified Eagle Medium containing 10% fetal bovine serum, 10 unit penicillin, and 10 μg streptomycin, plated on a petri dish having a diameter of 10 cm at 3×10^6 cells, and cultured for 24 hr. A medium containing a reduced amount of serum (manufactured by Invitrogen, trade name: OPTI-MEM, 600 μL), a gene insertion reagent (manufactured by Mirus Bio, trade name: Mirus TransIT-293, 18 μL), and human TRPA1 expression plasmid (6 μg) were mixed, the total amount of the mixture was added to the cells on the petri dish to allow for gene transfer. The cells were recovered about 8 hr later, plated on a poly-D-lysine coated 384 well black/clear bottom plate at 7,500-12,000 cells/well, and cultured overnight.
Measurement of Intracellular Calcium Increase
The 384 well plate was recovered, and the medium was removed. A calcium-bonded fluorescent indicator (manufactured by Molecular Device, trade name: Calcium4 Assay Kit, 40 μL) dissolved in assay buffer (1×HBSS, 20 mM HEPES, pH 7.2) was added, and the cells were stained in a 37° C. incubator for 1 hr. The cells were taken out at room temperature and left standing for 15 min or more. A test substance (10 μL) was added by a 384 well type dispenser, and the mixture was incubated at room temperature for 10 min. Then, allylisothiocyanate (12.5 μL) at a final concentration of 20 μM was added by a fluorescence imaging plate reader (manufactured by Molecular Device, FLIPR), and changes in the relative fluorescence intensity were measured for 5 min.
Test Substance Preparation
The test substance was dissolved in dimethyl sulfoxide and serially diluted with an assay buffer containing 0.1% bovine serum albumin (1×HBSS, 20 mM HEPES, pH 7.2) to a 5-fold concentration of the evaluation concentration. Allylisothiocyanate, which is a known TRPA1 activator, was dissolved in dimethyl sulfoxide to 100 mM, and further diluted 5-fold (100 μM) of the final concentration, like the test substance.
Calculation of Antagonist Activity
Under the test substance-free conditions, the maximum variation range of the fluorescence intensity before and after allylisothiocyanate stimulation was defined to be 100% activity rate, and the variation range before and after buffer stimulation was defined as 0% activity rate. The activity rate on addition of the test substance was determined, and the numerical value obtained by subtracting the activity rate from 100 was defined to be an inhibitory rate. IC50, which is the concentration of the test substance necessary for reaching the 50% inhibitory rate, was calculated from the sigmoid approximate curve by a spreadsheet software Excel-Fit.

T1 sequence (O75762 whole entry): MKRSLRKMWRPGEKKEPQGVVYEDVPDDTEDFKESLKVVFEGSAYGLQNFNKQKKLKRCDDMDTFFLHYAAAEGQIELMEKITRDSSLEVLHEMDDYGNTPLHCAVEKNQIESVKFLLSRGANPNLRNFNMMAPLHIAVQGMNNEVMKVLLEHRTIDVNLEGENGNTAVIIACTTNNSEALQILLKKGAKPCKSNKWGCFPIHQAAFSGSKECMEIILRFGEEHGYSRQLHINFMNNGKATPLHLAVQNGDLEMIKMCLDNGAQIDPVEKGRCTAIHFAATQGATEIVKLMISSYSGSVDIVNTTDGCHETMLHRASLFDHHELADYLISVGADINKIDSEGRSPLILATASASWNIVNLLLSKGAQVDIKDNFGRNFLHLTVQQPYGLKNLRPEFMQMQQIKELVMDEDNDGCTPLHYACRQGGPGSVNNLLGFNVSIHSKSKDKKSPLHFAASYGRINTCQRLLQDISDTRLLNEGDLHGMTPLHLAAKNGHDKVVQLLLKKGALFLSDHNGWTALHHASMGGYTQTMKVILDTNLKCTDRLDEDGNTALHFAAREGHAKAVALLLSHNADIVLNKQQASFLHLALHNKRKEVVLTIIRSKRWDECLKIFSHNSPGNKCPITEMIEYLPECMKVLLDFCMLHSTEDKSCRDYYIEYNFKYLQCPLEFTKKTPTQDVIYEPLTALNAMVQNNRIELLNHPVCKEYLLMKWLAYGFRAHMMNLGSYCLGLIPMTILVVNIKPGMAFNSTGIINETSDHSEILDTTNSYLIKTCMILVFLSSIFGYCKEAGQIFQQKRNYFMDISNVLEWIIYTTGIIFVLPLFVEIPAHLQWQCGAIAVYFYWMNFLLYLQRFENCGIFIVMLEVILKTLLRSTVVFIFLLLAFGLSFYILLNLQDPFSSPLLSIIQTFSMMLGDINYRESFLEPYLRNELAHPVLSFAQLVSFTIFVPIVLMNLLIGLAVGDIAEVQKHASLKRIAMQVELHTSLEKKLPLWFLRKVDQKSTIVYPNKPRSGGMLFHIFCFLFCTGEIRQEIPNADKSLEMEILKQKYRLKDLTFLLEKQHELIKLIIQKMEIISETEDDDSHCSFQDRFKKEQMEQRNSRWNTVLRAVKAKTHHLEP

Row | Compound | pIC50
1 | O=C(NCc1nc(-c2ccc(Cl)cc2)cs1)[C@@H]1CCCN1S(=O)(=O)c1ccc(Cl)s1 [compound 2, (2S)-1-(5-chlorothiophene-2-sulfonyl)-N-{[4-(4-chlorophenyl)thiazol-2-yl]methyl}pyrrolidine-2-carboxamide] | 6.17
2 | O=C(NCc1nc(-c2ccccc2)cs1)[C@@H]1CCCN1S(=O)(=O)c1ccc(Cl)s1 [compound 4, (2S)-1-(5-chlorothiophene-2-sulfonyl)-N-{(4-phenylthiazol-2-yl)methyl}pyrrolidine-2-carboxamide] | 6.12
3 | Cc1ccc(-c2csc(CNC(=O)[C@@H]3CCCN3S(=O)(=O)c3ccc(Cl)s3)n2)cc1 [compound 5, (2S)-1-(5-chlorothiophene-2-sulfonyl)-N-{[4-(4-methylphenyl)thiazol-2-yl]methyl}pyrrolidine-2-carboxamide] | 6.24
4 | O=C(NCc1nc(-c2cccc(C(F)(F)F)c2)cs1)[C@@H]1CCCN1S(=O)(=O)c1ccc(Cl)s1 [compound 6, (2S)-1-(5-chlorothiophene-2-sulfonyl)-N-({4-[3-(trifluoromethyl)phenyl]-thiazol-2-yl}methyl)-pyrrolidine-2-carboxamide] | 6.08
5 | C[C@H](NC(=O)[C@@H]1CCCN1S(=O)(=O)c1ccc(Cl)s1)c1nc(-c2ccc(OC(F)(F)F)cc2)cs1 [compound 11, (2S)-1-(5-chlorothiophene-2-sulfonyl)-N-[(1S)-1-{4-(4-(trifluoromethoxy)phenyl]-thiazol-2-yl}ethyl]-pyrrolidine-2-carboxamide] | 6.32
6 | O=C(NCc1nc(-c2ccc(C(F)(F)F)cc2)c[nH]1)[C@@H]1CCCN1S(=O)(=O)c1ccc(Cl)s1 [compound 16, (2S)-1-(5-chlorothiophene-2-sulfonyl)-N-({4-[4-(trifluoromethyl)phenyl]-imidazol-2-yl}methyl)-pyrrolidine-2-carboxamide] | 5.23
7 | Cc1cc(CNC(=O)[C@@H]2CCCN2S(=O)(=O)c2ccc(Cl)s2)nn1-c1ccc(Cl)cc1 [compound 17, (2S)-1-(5-chlorothiophene-2-sulfonyl)-N-{[1-(4-chlorophenyl)-5-methylpyrazol-3-yl]methyl)pyrrolidine-2-carboxamide] | 5.35
8 | O=C(NCc1nc(-c2ccc(Cl)cc2)cs1)[C@@H]1C=CCN1S(=O)(=O)c1ccc(Cl)s1 [compound 19, (2S)-1-(5-chlorothiophene-2-sulfonyl)-N-({4-[4-(chloro)phenyl]thiazol-2-yl}methyl)-3,4-didehydropyrrolidine-2-carboxamide] | 6.25
9 | O=C(NCc1nc(-c2cccc(C(F)(F)F)c2)cs1)[C@@H]1C=CCN1S(=O)(=O)c1ccc(Cl)s1 [compound 21, (2S)-1-(5-chlorothiophene-2-sulfonyl)-N-({4-[3-(trifluoromethyl)phenyl]-thiazol-2-yl}methyl)-3,4-didehydropyrrolidine-2-carboxamide] | 6.15
10 | C[C@H](NC(=O)[C@@H]1C=CCN1S(=O)(=O)c1ccc(Cl)s1)c1nc(-c2ccc(C(F)(F)F)cc2)cs1 [compound 24, (2S)-1-(5-chlorothiophene-2-sulfonyl)-N-[(1S)-1-{4-[4 (trifluoromethyl)phenyl]-thiazol-2-yl)ethyl]-3,4-didehydropyrrolidine-2-carboxamide] | 6.33

These reach a higher pIC50. Values come first.

Row | pIC50 | Compound
11 | 6.80 | O=C(NCc1nc(-c2ccc(OC(F)(F)F)cc2)cs1)[C@@H]1CCCN1S(=O)(=O)c1ccc(Cl)s1 [compound 3, (2S)-1-(5-chlorothiophene-2-sulfonyl)-N-({4-[4-(trifluoromethoxy)phenyl]-thiazol-2-yl}methyl)-pyrrolidine-2-carboxamide]
12 | 6.37 | O=C(NCc1nc(-c2cccc(F)c2)cs1)[C@@H]1CCCN1S(=O)(=O)c1ccc(Cl)s1 [compound 7, (2S)-1-(5-chlorothiophene-2-sulfonyl)-N-{[4-(3-fluorophenyl)thiazol-2-yl]methyl}pyrrolidine-2-carboxamide]
13 | 6.77 | O=C(NCc1nc(-c2ccc(OC(F)(F)F)c(F)c2)cs1)[C@@H]1CCCN1S(=O)(=O)c1ccc(Cl)s1 [compound 8, (2S)-1-(5-chlorothiophene-2-sulfonyl)-N-({4-[3-fluoro-4-(trifluoromethoxy)-phenyl]thiazol-2-yl}methyl)-pyrrolidine-2-carboxamide]
14 | 6.82 | Cc1sc(CNC(=O)[C@@H]2CCCN2S(=O)(=O)c2ccc(Cl)s2)nc1-c1ccc(C(F)(F)F)cc1 [compound 9, (2S)-1-(5-chlorothiophene-2-sulfonyl)-N-({5-methyl-4-[4-(trifluoromethyl)phenyl]-thiazol-2-yl}methyl)-pyrrolidine-2-carboxamide]
15 | 6.49 | C[C@H](NC(=O)[C@@H]1CCCN1S(=O)(=O)c1ccc(Cl)s1)c1nc(-c2ccc(C(F)(F)F)cc2)cs1 [compound 10, (2S)-1-(5-chlorothiophene-2-sulfonyl)-N-[(1S)-1-{4-[4-(trifluoromethyl)phenyl]-thiazol-2-yl}ethyl]-pyrrolidine-2-carboxamide]
16 | 6.52 | O=C(NCc1nc(-c2ccc(C(F)(F)F)cc2)co1)[C@@H]1CCCN1S(=O)(=O)c1ccc(Cl)s1 [compound 12, (2S)-1-(5-chlorothiophene-2-sulfonyl)-N-({4-(4-(trifluoromethyl)phenyl]-oxazol-2-yl}methyl)-pyrrolidine-2-carboxamide]
17 | 6.92 | O=C(NCc1nc(-c2ccc(OC(F)(F)F)cc2)co1)[C@@H]1CCCN1S(=O)(=O)c1ccc(Cl)s1 [compound 13, (2S)-1-(5-chlorothiophene-2-sulfonyl)-N-({4-[4-(trifluoromethoxy)phenyl]-oxazol-2-yl}methyl)-pyrrolidine-2-carboxamide]
18 | 6.70 | O=C(NCc1csc(-c2ccc(C(F)(F)F)cc2)n1)[C@@H]1CCCN1S(=O)(=O)c1ccc(Cl)s1 [compound 14, (2S)-1-(5-chlorothiophene-2-sulfonyl)-N-({2-[4-(trifluoromethyl)phenyl]-thiazol-4-yl}methyl)-pyrrolidine-2-carboxamide]
19 | 6.62 | O=C(NCc1nc(-c2ccc(C(F)(F)F)cc2)no1)[C@@H]1CCCN1S(=O)(=O)c1ccc(Cl)s1 [compound 15, (2S)-1-(5-chlorothiophene-2-sulfonyl)-N-({3-[4-(trifluoromethyl)phenyl]-1,2,4-oxadiazol-5-yl}methyl)pyrrolidine-2-carboxamide]
20 | 6.77 | O=C(NCc1nc(-c2ccc(C(F)(F)F)cc2)cs1)[C@@H]1C=CCN1S(=O)(=O)c1ccc(Cl)s1 [compound 18, (2S)-1-(5-chlorothiophene-2-sulfonyl)-N-({4-[4-{trifluoromethyl)phenyl]-thiazol-2-yl}methyl)-3,4-didehydropyrrolidine-2-carboxamide]
21 | 6.96 | O=C(NCc1nc(-c2ccc(OC(F)(F)F)c(F)c2)cs1)[C@@H]1C=CCN1S(=O)(=O)c1ccc(Cl)s1 [compound 22, (2S)-1-(5-chlorothiophene-2-sulfonyl)-N-({4-[3-fluoro-4-(trifluoromethoxy)phenyl]-thiazol-2-yl}methyl)-3,4-didehydropyrrolidine-2-carboxamide]
22 | 6.85 | Cc1sc(CNC(=O)[C@@H]2C=CCN2S(=O)(=O)c2ccc(Cl)s2)nc1-c1ccc(C(F)(F)F)cc1 [compound 23, (2S)-1-(5-chlorothiophene-2-sulfonyl)-N-({5-methyl-4-[4-(trifluoromethyl)phenyl]-thiazol-2-yl}methyl)-3,4-didehydropyrrolidine-2-carboxamide]
23 | 6.59 | O=C(NCc1nc(-c2ccc(C(F)(F)F)cc2)co1)[C@@H]1C=CCN1S(=O)(=O)c1ccc(Cl)s1 [compound 25, (2S)-1-(5-chlorothiophene-2-3ulfonyl)-N-({4-[4-(trifluoromethyl)phenyl]-oxazol-2-yl}methyl)-3,4-didehydropyrrolidine-2-carboxamide]
